From patent US11981944B2, “Immunogenic arginase peptides” (IO Biotech ApS, priority 2016, dated 2024)

What was measured:
[1] = test system: peripheral blood mononuclear cells (PBMC); assay: IFN-gamma ELISPOT secretion assay on PBMC (Example 1); type: cell-based, human; details: for immune responses against overlapping 20mer peptides: PBMC from three cancer patients, FIG. 3
[2] = test system: PBMCs from healthy donors or cancer patients; assay: IFNγ ELISPOT on PBMCs after one week peptide and IL-2 stimulation (Example 2); type: cell-based, human; details: for spontaneous IFNγ ELISPOT responses against 20-mer library peptides: cancer (melanoma) patient PBMCs, FIG. 9A
Experimental: PBMCs from healthy donors or cancer patients were stimulated with 80 μg of arginase-derived peptides and 120 U/ml IL-2 (Peprotech, London, UK, cat. 200-02) for a week. 4-6×10^5 PBMCs were then placed in the bottom of ELISPOT plate (nitrocellulose bottomed 96-well plates by MultiScreen MAIP […]; Millipore, cat. MSIPN4W50) pre-coated with IFN-y capture Ab (Mabtech, cat. 3420-3-1000) and 1-10 μg of arginase derived peptides were added. PBMCs from each patient and donors were set up in duplicates or triplicates for peptide and control stimulations. Cells were incubated in ELISPOT plates in the presence of an antigen for 14-16 hours after which they are washed off and secondary biotinylated Ab (Mabtech, cat. 3420-6-1000) was added. After 2 h incubation unbound secondary antibody was washed off and streptavidin conjugated alkaline phosphatase (AP) (Mabtech, cat. 3310-10) was added for 1 h. Next, unbound conjugated enzyme is washed off and the assay is developed by adding BCIP/NBT substrate (Mabtech, cat. 3650-10). Developed ELISPOT plates were analysed on CTL ImmunoSpot S6 Ultimate-V analyzer using Immunospot software v5.1. Responses were calculated as the difference between average numbers of spots in wells stimulated with Arginase-1 peptides and control wells. We divided the entire arginase-1 protein sequence into overlapping 20-amino-acid-long peptides, generating a library of 31 peptides covering the whole sequence (SEQ ID NOs 18-48)). Each peptide in the library overlapped with the first 10 amino acids of the following peptide. Using this arginase peptide library and the IFNγ ELISPOT assay, we next screened PBMCs from melanoma patients and healthy donors for spontaneous responses (FIGS. 9A and 9B). The PBMCs were stimulated for one week with a pool of 3-4 adjacent 20-mer arginase library peptides and low-dose IL-2 (120 U/mL). They were then set up for an IFNγ ELISPOT assay to screen for responses against each 20-mer peptide separately. […] Among these overlapping peptides, […]-200), and Arg(191-210) spanned a 50-amino-acid-long region that was deemed a hot-spot region since nearly all patients harbored a response against one or more of these peptides (FIG. 9A). The selected eight peptides were further used to screen for spontaneous immune responses against arginase-1 in PBMCs from eight healthy donors using IFNγ ELISPOT. […] Since we most frequently observed responses against arginase-1 peptides from the hot-spot region, we next analyzed whether longer peptides covering the same sequence could be used instead of four 20-mers. […] We then divided the arginase-1 hot-spot region into two 30-mer peptides that overlapped by 10 amino acids (peptides labelled by reference to start and end position): […]-190) and […]-210). These 30-mer peptides were used to check for responses in selected PBMCs from cancer patients and healthy donors, which had previously shown responses against the 20-mer hot-spot peptides. The PBMCs were stimulated for one week with either […]-190) or […]-210) in the presence of IL-2, and were then used in IFNγ ELISPOT.

[3] = test system: TILs from eight melanoma patients; assay: Intracellular staining for IFNγ and TNFα release in melanoma TILs; type: cell-based, human; details: for IFNγ or TNFα release from CD8+ T cells: TILs; for IFNγ or TNFα release from CD8+ T cells / IFNγ release from CD4+ T cells: 5 h peptide stimulation; for IFNγ release from CD4+ T cells: one of the TIL cultures, FIG. 10A
Experimental: Flow cytometry analysis was performed on a FACSCantoTM II (BD Biosciences, San Jose CA, USA). Intracellular staining of cell cultures was performed after the cells were stimulated with 20-mere peptides for 5 hours or 30-mere peptides for 8h (BD GolgiPlugTM cat. 555029, was added after the first hour). The cells were then stained for surface markers, then washed and permeabilized by using Fixation/Permeabilization and Permeabilization Buffer (eBioscience, cat. 00-5123-43), according to manufacturer's instructions. Antibodies used: IFNγ-APC (cat. 341117), TNFα-BV421 (cat. 562783), CD4-FITC (cat. 347413), CD8-PerCP (cat. 345774) (all from BD Biosciences). Dead cells were stained using FVS510 (564406, BD Biosciences) according to manufacturer's instructions. To investigate the potential presence of arginase-specific T cells among tumor-infiltrating lymphocytes in cancer, we screened TILs from eight melanoma patients for responses against arginase-1 derived peptides. To this end, we performed intracellular staining for IFNγ and TNFα release in response to peptide stimulation. TILs were thawed and rested overnight without IL-2, and then stimulated for 5 h with three hot-spot immunogenic region 20-mer peptides (peptides labelled by reference to start and end position): […]-200). […] The percentage of IFNγ-producing cells was higher for […]-190) and […]-200) compared to […]-180), and the response against […]-200) was almost twice that against […]-180).

C57BL/6 and Balb/c mice = assay: Peptide vaccination of mice and IFNgamma ELISPOT of spleen or dLN cells; type: in vivo, mouse; details: 100 μg peptide s.c. day0 and day7
Experimental: Animals were vaccinated subcutaneously with 100 μg peptide in DMSO/H2O in a 1:1 emulsion with incomplete Freund's adjuvant (IFA) or montanide. IFA+DMSO/H2O served as a control vaccine. Vaccinations were carried out on day0 and day7. For subsequent analysis of the immune response to specific peptides, mice were sacrificed on day 14 and spleen and draining lymph nodes (dLNs) were harvested.
Murine immune cells were subjected to ELISPOT analysis. Single cell suspension was prepared from spleen or dLNs by passage through a cell strainer. After lysis of red blood cells, 0.9×10E6 cells/well were seeded into ELISPOT plates coated with anti-IFNgamma antibody. Peptide of interest was added to designated wells and cells were incubated o/n with peptide. The next day, cells were removed, plates washed and incubated with biotinylated detection antibody. Finally, after addition of Streptavidin-ALP and substrate visible spots appear. Each spot corresponds to an individual IFNgamma producing cell. Plates were analysed in an Immunospot analyser and plotted as spots/0.9×10E6 cells minus background (i.e. minus number of spots in corresponding unstimulated (no peptide) wells).

[4] = test system: CT26.WT colon cancer cells; assay: Tumor vaccination of Balb/c mice bearing CT26.WT tumors; type: in vivo, mouse; details: for tumor growth relative to vaccination with control peptide: vaccination day6 and day 13, FIG. 16
[5] = test system: arginase-specific CD4+ T-cell culture; assay: Recognition by arginase-specific CD4+ T-cell culture (ArgShort-stimulated); type: cell-based, human; details: IFNγ ELISPOT and intracellular staining; FIG. 11C
Experimental: PBMCs from healthy donors or cancer patients were stimulated with 80 μg of arginase-derived peptides and 120 U/ml IL-2 (Peprotech, London, UK, cat. 200-02) for a week. 4-6×10^5 PBMCs were then placed in the bottom of ELISPOT plate (nitrocellulose bottomed 96-well plates by MultiScreen MAIP N45; Millipore, cat. MSIPN4W50) pre-coated with IFN-y capture Ab (Mabtech, cat. 3420-3-1000) and 1-10 μg of arginase derived peptides were added. PBMCs from each patient and donors were set up in duplicates or triplicates for peptide and control stimulations. Cells were incubated in ELISPOT plates in the presence of an antigen for 14-16 hours after which they are washed off and secondary biotinylated Ab (Mabtech, cat. 3420-6-1000) was added. After 2 h incubation unbound secondary antibody was washed off and streptavidin conjugated alkaline phosphatase (AP) (Mabtech, cat. 3310-10) was added for 1 h. Next, unbound conjugated enzyme is washed off and the assay is developed by adding BCIP/NBT substrate (Mabtech, cat. 3650-10). Developed ELISPOT plates were analysed on CTL ImmunoSpot S6 Ultimate-V analyzer using Immunospot software v5.1. Responses were calculated as the difference between average numbers of spots in wells stimulated with Arginase-1 peptides and control wells.
Arginase-specific T cell culture were established by stimulation of cancer patient PBMC with irradiated ArgShort (SEQ ID NO 9) peptide-loaded autologous DC or PBMCs. The following day IL-7 and IL-12 (PeproTech, London, UK, cat. 200-07-10 and 200-12) were added. Stimulation of the cultures were carried out every 8 days with ArgShort peptide loaded irradiated autologous DC followed by ArgShort peptide-loaded irradiated autologous PBMC. The day after peptide stimulation IL-2 […]. After 5 stimulations arginase-specific T cells were enriched using TNF-α cell enrichment kit (MiltenyiBiotec, cat. 130-091-269).
Flow cytometry analysis was performed on a FACSCanto™ II (BD Biosciences, San Jose CA, USA). […]

[6] = test system: T2-cells loaded with peptide; assay: 51Cr-release assay for CTL-mediated cytotoxicity; type: cell-based, human; details: standard chromium release assay; FIG. 5
Experimental: Conventional ^51Cr-release assays for CTL-mediated cytotoxicity were carried out as described elsewhere. Target cells were T2-cells (ATCC), HLA-A2^+ melanoma cell lines (FM3 and FM93)
In this experiment Arginase specific T cells were incubated 4 h with either Cr-labeled melanoma cell lines FM3 or FM93 at different effector:target ratios. Both cell lines express intracellular Arginase.

[7] = CD4+ T cells in TILs, 5 h stimulation

DVDPGEHYILKTLGIKYFSM (Peptide frgment of human Arginase 1) [Arg1-19, positions 181-200 of human Arginase 1]
immune responses against overlapping 20mer peptides [1]: Frequent immune responses were detected | spontaneous IFNγ ELISPOT responses against 20-mer library peptides [2]: highest and most abundant responses | percentage of IFNγ-producing cells compared to Arg(161-180) [3, 7]: higher | response relative to that against Arg(161-180) [3, 7]: almost twice that against Arg(161-180) | IFNγ or TNFα release from CD8+ T cells [3]: No IFNγ or TNFα release was observed | IFNγ release from CD4+ T cells [3]: IFNγ was released from CD4+ T cells | immunogenicity (peptide specific IFNgamma ELISPOT response) (C57BL/6 and Balb/c mice; Balb/c mice, FIG. 15): immunogenic | immunogenicity (peptide specific IFNgamma ELISPOT response) (C57BL/6 and Balb/c mice; C57BL/6 mice, FIG. 14): immunogenic | size of the tumor growth effect among the tested peptides [4]: most noticeable | tumor growth relative to vaccination with control peptide [4]: inhibit tumor growth

GFSWVTPCISAKDIVYIGLR (Peptide fragment of human Arginase 1) [Arg1-17, positions 161-180 of human Arginase 1; murine region identical]
immune responses against overlapping 20mer peptides [1]: Frequent immune responses were detected | spontaneous IFNγ ELISPOT responses against 20-mer library peptides [2]: highest and most abundant responses | IFNγ or TNFα release from CD8+ T cells [3]: No IFNγ or TNFα release was observed | IFNγ release from CD4+ T cells [3]: IFNγ was released from CD4+ T cells | immunogenicity (peptide specific IFNgamma ELISPOT response) (C57BL/6 and Balb/c mice; Balb/c mice, FIG. 15): immunogenic | immunogenicity (peptide specific IFNgamma ELISPOT response) (C57BL/6 and Balb/c mice; C57BL/6 mice, FIG. 14): immunogenic | tumor growth relative to vaccination with control peptide [4]: inhibit tumor growth

GFSWVTPCISAKDIVYIGLRDVDPGEHYILKTLGIKYFSMTEVDRLGIGK (Peptide fragment of human Arginase 1) [50-mer peptide, 50-mer covering the entire hot-spot region, positions 161-210 of human Arginase 1]
IFNγ ELISPOT responses against longer hot-spot peptides ([2]; selected PBMCs from cancer patients and healthy donors, one week stimulation with IL-2, FIG. 10B, 10C): lower responses compared to the 20-mer peptides | recognition by T-cell culture specific against the minimal arginase epitope [5]: not recognized

IVYIGLRDV (Peptide fragment of human Arginase 1) [Arg8, positions 174-182 of human Arginase 1]
specific T-cell responses against Arg-derived peptide ([1]; IFN-gamma ELISPOT, PBMC from six melanoma patients, FIG. 1): Strong responses | Immune responses against Arg 8 peptide ([1]; PBMC from 6 cancer patients, specific cells/3×10e5 cells, FIG. 2): Very strong responses were frequently detected | killing of peptide-loaded target cells by CD8 positive culture [6]: can kill target cells loaded with Arg8

KDIVYIGL (Peptide fragment of human Arginase 1) [mARG1, positions 172-179 of human Arginase 1; murine region identical]
immunogenicity (peptide specific IFNgamma ELISPOT response) (C57BL/6 and Balb/c mice; C57BL/6 mice, FIG. 14): immunogenic

KTLGIKYFSMTEVDKLGIGK (Peptide fragment of murine Arginase 1) [mARG20, positions 191-210 of murine Arginase 1]
immunogenicity (peptide specific IFNgamma ELISPOT response) (C57BL/6 and Balb/c mice; Balb/c mice, FIG. 15): immunogenic | immunogenicity (peptide specific IFNgamma ELISPOT response) (C57BL/6 and Balb/c mice; C57BL/6 mice, FIG. 14): immunogenic | size of the tumor growth effect among the tested peptides [4]: most noticeable | tumor growth relative to vaccination with control peptide [4]: inhibit tumor growth

LGIKYFSM (Peptide fragment of human Arginase 1) [mARG2, positions 193-200 of human Arginase 1; murine region identical]
immunogenicity (peptide specific IFNgamma ELISPOT response) (C57BL/6 and Balb/c mice; Balb/c mice, FIG. 15): not immunogenic | immunogenicity (peptide specific IFNgamma ELISPOT response) (C57BL/6 and Balb/c mice; C57BL/6 mice, FIG. 14): not immunogenic
